According to US11098040B2, “Compounds and methods of use” (Ferro Therapeutics, Inc., priority 2018, dated 2021):
Read-outs that look alike come from different tables or passages of the source.

Assays:
[1] = PK profile, IV plasma concentration and PK parameters; assay type: in vivo; details: Balb/C nude, mouse, iv, 5 mg/kg, 30% Kolliphore EL with 1% poloxamar 407 in water; for AUC(0-t): read-out: AUC0-t; for AUC(0-inf): read-out: AUC0-∞
Procedure: The PK profiles of compounds 148, 149, 150, 156 and 169 are shown below. Compound 156 was formulated in 30% Kolliphor EL (Cremophor EL) in water and compounds 148, 149, 150 and 169 were formulated in 30% Kolliphore EL with 1% poloxamar 407 in water. All compounds were dosed at 5 mg/kg. Blood samples were collected at various time points and analyzed using the method described above.

786-O = test: Cell proliferation (Alamar Blue) assay, 786-O renal cell carcinoma, with/without ferrostatin; assay type: cell-based; details: Homo sapiens
How it was run: (§1)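 Cells seeded at 5000/well, 16-24 h, then exposed 24 h at 37° C to compound, 10-0.0005 μM in 3-fold dilutions, 1% DMSO final. Alamar Blue fluorescence (ex 540/em 590 nm) read after 1.5 h; IC50 from variable-slope sigmoidal fit.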

SJSA-1 [2] = test: Cell proliferation (Alamar Blue) assay, SJSA-1 osteosarcoma, with/without ferrostatin; assay type: cell-based, human; details: Homo sapiens
How it was run: as §1

A431 = test: Cell proliferation (Alamar Blue) assay, A431; assay type: cell-based; details: Homo sapiens, A-431; Cell Line A431
Procedure: Cells (SJSA-1, 786-O and A431) were seeded (5000 cells/100 μL/well) in 96-well tissue culture plate and incubated at 37° C./5% CO2 for 16-24 hours. The cells were then treated with compounds (25 μL of 5×). The compound concentrations were 10-0.0005 μM prepared in 3-fold serial dilutions with final DMSO concentration of 1%. The plates were then incubated for 24 h at 37° C./5% CO2 in a moist environment. Then Alamar Blue™ reagent (final concentration 1×-12.5 μL) was added to each well and incubated for 1.5 hours at 37° C./5% CO2. The plates were read on fluorescence reader at 540 nm excitation and 590 nm emission wavelengths. The IC50 values were subsequently determined using a sigmoidal dose-response curve (variable slope) in GraphPad Prism® 5 software.
The cell proliferation assays for the compounds shown Table 25 was performed according to the protocols described herein, including Examples 4 and 6.

A549 = test: Cell viability assay, A549 cells; assay type: cell-based; details: Homo sapiens, A549, Cell Line A549; read-out: IC50
How it was run: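 Growth of A549 cells was assessed with a cell viability assay. Cells were plated at 1,000-10,000 cells/well in 96-well plates and incubated overnight at 37° C. Nine-point 3-fold DMSO dilutions, starting from 30 μM and run in duplicate, were diluted into media (final DMSO 0.25% or less). After 96 hours, CellTiter Glo luminescence was read, inhibition was calculated against DMSO controls, and IC50 was fitted in XL-fit.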

MiaPaCa-2 = test: Cell viability assay (CellTiter Glo), pancreatic carcinoma MiaPaCa-2; assay type: cell-based; details: Homo sapiens, MIA PaCa-2; pancreatic carcinoma, 96 hours, CellTiter Glo; read-out: IC50 MiaPaCa-2
Procedure: (§2) Cell viability assay was performed to assess the potency of the compounds in human cancer cell lines KP4 (pancreatic ductal adenocarcinoma), MiaPaCa-2 (pancreatic carcinoma), AsPC-1 (pancreatic adenocarcinoma, ascites), 143B (osteosarcoma), and SJSA-1 (osteosarcoma). Selected compounds were also assayed in a human breast epithelial cell line MCF-10A, a nontumorigenic cell line as a control to assess differential activity. Cells at a density of 500-5,000 cells/well were seeded in 96-well plates and incubated at 37° C. overnight. A series of 9 different concentrations of compound stocks (500×) were created by 3-fold serial dilution in DMSO. These compounds were further diluted in culture media and then added to cells so that the final DMSO concentration was equal to 0.25% or less. After 96 hours of incubation, 50 μL of CellTiter Glo reagent (Promega) was added to each well and luminescence was measured after 10 minutes using EnVision (PerkinElmer). Compounds titrated from top concentration of up to 30 μM. The select compounds were tested initially from 30 μM as the top concentration in duplicates (range of 4.6 nM-30 μM). […] Luminescence from cells treated with DMSO alone was set as Max and % of inhibition was calculated as follows: Inhibition %=(Max-Sample value)/Max*100. Data was analyzed using XL-fit software (ID Business Solutions Ltd.). IC50, relative IC50, or % of top inhibition was calculated.
The results of the assay in the pancreatic cell lines are given in Table 15a for PANC1, Table 15b for MiaPaCa-2, and Table 15c for AsPC-1.

SJSA-1 [3] = test: Cell viability assay (CellTiter Glo), osteosarcoma SJSA-1; assay type: cell-based; details: Homo sapiens, 96 hours
Procedure: as §2
The results of the assay in sarcoma cell lines are given in Table 21a for HT-1080 luc2 (fibrosarcoma expressing a luciferase gene), Table 21b for 143B (osteosarcoma), and Table 21c for SJSA-1 (osteosarcoma).

MCF-10A = test: Cell viability assay (CellTiter Glo), non-tumorigenic breast epithelial cell line MCF-10A; assay type: cell-based; details: Homo sapiens, 96 hours
Procedure: as §2
Paclitaxel was used as the positive control for cytotoxicity.

[4] = 786-0, Cell Line 786-O, read-out: IC50
[5] = SJSA-1, Cell Line SJSA-1, read-out: IC50
[6] = 786-0, 24 h, Alamar Blue, 24 h, 2 μM ferrostatin, read-out: 786-O (IC50, μM) 2 μM Ferrostatin
[7] = 786-0, 24 h, Alamar Blue, 24 h, without ferrostatin, read-out: 786-O (IC50, μM) Without Ferrostatin
[8] = SJSA-1, 24 h, Alamar Blue, 24 h, 2 μM ferrostatin, read-out: SJSA-1 (IC50, μM) 2 μM Ferrostatin
[9] = SJSA-1, 24 h, Alamar Blue, 24 h, without ferrostatin, read-out: SJSA-1 (IC50, μM) Without Ferrostatin

IC50 (786-O; [4]) [µM]	IC50 (SJSA-1 [2]; [5]) [µM]	IC50 (A431) [µM]	IC50 (786-O; [6]) [µM]	IC50 (786-O; [7]) [µM]	IC50 (SJSA-1 [2]; [8]) [µM]	IC50 (SJSA-1 [2]; [9]) [µM]	Compound	other results
0.006	0.008	3.6	–	–	–	–	C#CC(=O)N1[C@@H](CCCC)Cc2c([nH]c3ccccc23)[C@@H]1c1ccc(NC23CC4CC(CC(C4)C2)C3)cc1 [Compound 148, 1-((1 S,3S)-1-(4-(((3R,5R,7R)-adamantan-1-yl)amino)phenyl)-3-butyl-1,3,4,9-tetrahydro-2H-pyrido[3,4-b]indol-2-yl)prop-2-yn-1-one]	C0 [1]: 40600 ng/mL; Cmax [1]: 33000 ng/mL; clearance [1]: 4.79 mL/min/kg; AUC(0-t) [1]: 17200 ng·h/mL; AUC(0-inf) [1]: 17400 ng·h/mL; Vd ([1]; read-out: Vd): 2.39 L/kg; Vd ([1]; read-out: Vss): 0.47 L/kg; half-life ([1]; time points considered 4-24 h): 5.76 h
0.003	0.001	3.9	4.96	0.003	> 10	0.001	CCCC[C@H]1Cc2c([nH]c3ccccc23)[C@H](c2ccc(S(=O)(=O)NC3CC3)cc2F)N1C(=O)CCl [Compound 169, 4-((1S,3S)-3-butyl-2-(2-chloroacetyl)-2,3,4,9-tetrahydro-1H-pyrido[3,4-b]indol-1-yl)-N-cyclopropyl-3-fluorobenzenesulfonamide]	C0 [1]: 5380 ng/mL; Cmax [1]: 2220 ng/mL; clearance [1]: 109 mL/min/kg; AUC(0-t) [1]: 760 ng·h/mL; AUC(0-inf) [1]: 762 ng·h/mL; Vd ([1]; read-out: Vd): 2.39 L/kg; Vd ([1]; read-out: Vss): 0.98 L/kg; half-life ([1]; time points considered 0.25-2 h (1 h excluded)): 0.25 h
0.023	0.034	3.67	3.95	0.023	3.98	0.034	COc1ccc2[nH]c3c(c2c1)C[C@H](C)N(C(=O)CCl)[C@H]3c1ccc(S(=O)(=O)NC2CC2)cc1F [Compound 173, 4-((3S)-2-(2-chloroacetyl)-6-methoxy-3-methyl-2,3,4,9-tetrahydro-1H-pyrido[3,4-b]indol-1-yl)-N-cyclopropyl-3-fluorobenzenesulfonamide]	–
0.062	0.081	1.55	> 10	0.062	9.55	0.081	C[C@H]1Cc2c([nH]c3ccccc23)[C@H](c2ccc(N3CCS(=O)(=O)CC3)cc2)N1C(=O)CCl [Compound 210, 2-chloro-1-((1S,3S)-1-(4-(1,1-dioxidothiomorpholino)phenyl)-3-methyl-1,3,4,9-tetrahydro-2H-pyrido[3,4-b]indol-2-yl)ethan-1-one]	–
0.025	0.045	> 10	–	–	–	–	COC[C@H]1Cc2c([nH]c3ccccc23)[C@H](c2ccc(N3CCOCC3)cc2)N1C(=O)CCl [Compound 232]	–

More lines, now with the values behind:

Compound	IC50 (786-O; [4]) [µM]	IC50 (SJSA-1 [2]; [5]) [µM]	IC50 (A431) [µM]	IC50 (786-O; [6]) [µM]	IC50 (786-O; [7]) [µM]	IC50 (SJSA-1 [2]; [8]) [µM]	IC50 (SJSA-1 [2]; [9]) [µM]	other results
CCCC[C@H]1Cc2c([nH]c3ccccc23)[C@H](c2ccc(NC34CC5CC(CC(C5)C3)C4)cc2)N1C(=O)CCl [Compound 149, 1-((1S,3S)-1-(4-(((3R,5R,7R)-adamantan-1-yl)amino)phenyl)-3-butyl-1,3,4,9-tetrahydro-2H-pyrido[3,4-b]indol-2-yl)-2-chloroethan-1-one]	0.001	0.002	3.8	–	–	–	–	C0 [1]: 29400 ng/mL; Cmax [1]: 22000 ng/mL; clearance [1]: 13 mL/min/kg; AUC(0-t) [1]: 6540 ng·h/mL; AUC(0-inf) [1]: 6550 ng·h/mL; Vd ([1]; read-out: Vd): 2.34 L/kg; Vd ([1]; read-out: Vss): 0.53 L/kg; half-life ([1]; time points considered 2-8 h): 2.12 h
C[C@H]1Cc2c([nH]c3ccccc23)[C@H](c2ccc(N3CC4(COC4)C3)cc2)N1C(=O)CCl [Compound 213, 1-((1S,3S)-1-(4-(2-oxa-6-azaspiro[3.3]heptan-6-yl)phenyl)-3-methyl-1,3,4,9-tetrahydro-2H-pyrido[3,4-b]indol-2-yl)-2-chloroethan-1-one]	0.066	0.066	1.85	5.62	0.066	4.79	0.066	–
C[C@H]1Cc2c([nH]c3ccccc23)[C@H](c2ccc(C(=O)NC3CCC3)nc2)N1C(=O)CCl [Compound 214, 5-((1S,3S)-2-(2-chloroacetyl)-3-methyl-2,3,4,9-tetrahydro-1H-pyrido[3,4-b]indol-1-yl)-N-cyclobutylpicolinamide]	0.019	0.03	1.58	4.72	0.019	4.15	0.03	–
CC1CN(c2ccc([C@H]3c4[nH]c5ccccc5c4C[C@H](C)N3C(=O)CCl)cc2)CCO1 (some centres unmarked) [Compound 215]	0.018	0.028	8.22	9.88	0.018	9.41	0.028	–
C[C@H]1Cc2c([nH]c3ccccc23)[C@H](c2ccc(N3CCOCC3)cc2F)N1C(=O)CCl [Compound 233]	0.0337	0.0443	4.8	–	–	–	–	IC50 (A549): 1.97 µM
Cc1cc(N2CCOCC2)ccc1[C@H]1c2[nH]c3ccccc3c2C[C@H](C)N1C(=O)CCl [Compound 234, 2-chloro-1-((1S,3S)-3-methyl-1-(2-methyl-4-morpholinophenyl)-1,3,4,9-tetrahydro-2H-pyrido[3,4-b]indol-2-yl)ethan-1-one]	4.17	3.92	8	–	–	–	–	IC50 (A549): 3.25 µM
COC(=O)[C@H]1Cc2c([nH]c3ccccc23)[C@H](c2ccc(C(=O)N3CCOCC3)cc2)N1C(=O)CCl [Example 26]	–	–	–	–	–	–	–	IC50 (MiaPaCa-2): 0.052 µM; IC50 (SJSA-1 [3]): 0.339 µM; IC50 (MCF-10A): 3.97 µM
COC(=O)[C@H]1Cc2c([nH]c3ccccc23)[C@H](c2ccc(C(=O)NCCN3CCOCC3)cc2)N1C(=O)CCl [Example 27]	–	–	–	–	–	–	–	IC50 (MiaPaCa-2): 0.466 µM; IC50 (SJSA-1 [3]): 1.41 µM; IC50 (MCF-10A): 9.41 µM
COC(=O)[C@H]1Cc2c([nH]c3ccccc23)[C@H](c2ccc(S(=O)(=O)N3CCC(O)CC3)cc2)N1C(=O)CCl [Example 35]	–	–	–	–	–	–	–	IC50 (MiaPaCa-2): 0.117 µM; IC50 (SJSA-1 [3]): 0.313 µM; IC50 (MCF-10A): 4.15 µM
COC(=O)[C@H]1Cc2c([nH]c3ccccc23)[C@H](c2ccc(S(=O)(=O)N3CC(O)C3)cc2)N1C(=O)CCl [Example 37]	–	–	–	–	–	–	–	IC50 (MiaPaCa-2): 0.279 µM; IC50 (SJSA-1 [3]): 0.63 µM; IC50 (MCF-10A): 5.46 µM
